Measurements published in patent publication US8901294B2, “MRI contrast agent having gadolinium complex” (priority 2010, dated 2014).
Read-outs that look alike come from different tables or passages of the source. Marks after values point to notes of the source that are not given here.

Tests used:
[1] = 25° C., μ = 0.10M (KCl); literature data; cited from earlier work
[2] = literature data, cited from earlier work; for LogK [GdL]/[Gd][L] (stability constant): 25° C., μ = 0.10M (KCl); for logKsel(Gd/Ca) (selectivity constant): Gd over Ca; for logKsel(Gd/Cu) (selectivity constant): Gd over Cu; for logKsel(Gd/Zn) (selectivity constant): Gd over Zn; for pGd: pM = −log[M]free at pH7.4, [M]total = 1 μmol/dm^3, [L]total = 1.1 μmol/dm^3
[3] = literature data, cited from earlier work; for LogK [ZnL]/[Zn][L] (stability constant): 25° C., μ = 0.10M (KCl); for pZn: pM = −log[M]free at pH7.4, [M]total = 1 μmol/dm^3, [L]total = 1.1 μmol/dm^3
[4] = literature data, cited from earlier work; for LogK [CuL]/[Cu][L] (stability constant): 25° C., μ = 0.10M (KCl); for pCu: pM = −log[M]free at pH7.4, [M]total = 1 μmol/dm^3, [L]total = 1.1 μmol/dm^3
[5] = 25° C., μ = 0.10M (KCl)
[6] = for logKsel(Gd/Ca) (selectivity constant): Gd over Ca; for logKsel(Gd/Ca) (selectivity constant) / logKsel(Gd/Cu) (selectivity constant) / logKsel(Gd/Zn) (selectivity constant): 25° C., μ = 0.10M (KCl); for logKsel(Gd/Cu) (selectivity constant): Gd over Cu; for logKsel(Gd/Zn) (selectivity constant): Gd over Zn; for logKGdL(pH7.4) (conditional stability constant): pH 7.4; for pGd: pM = −log[M]free at pH7.4, [M]total = 1 μmol/dm^3, [L]total = 1.1 μmol/dm^3
[7] = for logKCaL(pH7.4) (conditional stability constant): pH 7.4; for pCa: pM = −log[M]free at pH7.4, [M]total = 1 μmol/dm^3, [L]total = 1.1 μmol/dm^3
[8] = for logKZnL(pH7.4) (conditional stability constant): pH 7.4; for pZn: pM = −log[M]free at pH7.4, [M]total = 1 μmol/dm^3, [L]total = 1.1 μmol/dm^3
[9] = for logKCuL(PH7.4) (conditional stability constant): pH 7.4; for pCu: pM = −log[M]free at pH7.4, [M]total = 1 μmol/dm^3, [L]total = 1.1 μmol/dm^3
[10] = Relaxation times (T1, T2) and relaxivities (R1, R2) at 1.5 T; format: physicochemical; details: 1.5 T; mean value(±SD)
Experimental: T1 measurements were carried out using an inversion recovery method with a variable inversion time (TI) at 1.5 T. The MR images were acquired at 35 different TI values ranging from 50 to 1750 ms. T1 relaxation times were obtained from the nonlinear least-squares fit of the signal intensity measured at each T1 value. For T2 measurements the CPMG (Carr-Purcell-Meiboon-Gill) pulse sequence was adapted for multiple spin-echo measurements. Thirty-four images were acquired with 34 different echo time (TE) values. T2 relaxation times were obtained from the nonlinear least-squares fit of the mean pixel values for the multiple spin-echo measurements at each echo time. Relaxivities were then calculated as an inverse (R=1/s·mM) of relaxation time per mM. The determined relaxation times and relaxivities are finally transformed to a phantom map. The phantom images were obtained with the same concentration of Dotarem® and gadolinium complexes or comparative purposes. […] Table 2 summarizes the relaxation times and relaxivities for gadolinium complexes of the present invention along with other Gd-complexes.

[11] = literature data, cited from earlier work; for LogK [CaL]/[Ca][L] (stability constant): 25° C., μ = 0.10M (KCl)
[12] = Transmetalation kinetics: evolution of paramagnetic relaxation rate R1P(t)/R1P(0) in presence of ZnCl2; format: physicochemical; details: phosphate-buffered solution pH 7.4, 2.5 mmol/L Gd-complex and 2.5 mmol/L ZnCl2, 72 hours
From the text: […]. The relative value of R1^P at time t, R1^P(t)/R1^P(0), is therefore a good estimate of the extent of transmetalation. The evolution of R1^P(t)/R1^P(0) over time gives relevant information about the kinetics of the reaction, whereas the plateau value theoretically reached at t=∞ will reflect the thermodynamic aspect.
Accordingly, in order to investigate the transmetalation kinetics of the gadolinium complexes according to the present invention, the evolution of water proton relaxation rate (R1^P) of a phosphate-buffered solution (pH 7.4) containing 2.5 mmol/L of Gd-complex and 2.5 mmol/L of ZnCl2 with time was measured. To measure the change in the relaxation rate, 10 μL of a ZnCl2 solution (250 mmol/L) was added to 1 mL of a buffered solution of the Gd-complex and the mixture was vigorously stirred. The same experiment was performed with Dotarem®, Omniscan®, Multihance®, Primovist® and ethyl tranexamate (6) with zinc acetate for comparison. The measurement was made on a 3T whole body system (Magnetom Tim Trip; Simens, Germany) at room temperature.

[13] = reference values from ref. 8 or 9; cited from earlier work

O=C(O)CN(CCN(CC(=O)O)CC(=O)O)CCN(CC(=O)O)C(COCc1ccccc1)C(=O)O (stereo not drawn) [BOPTA]
LogK [H2L]/[HL][H] (protonation constant) [1]: 8.21
LogK [H3L]/[H2L][H] (protonation constant) [1]: 4.35
LogK [H4L]/[H3L][H] (protonation constant) [1]: 2.83
LogK [HL]/[L][H] (protonation constant) [1]: 10.71
ΣpKa (overall basicity) [1]: 26.10
LogK [GdL]/[Gd][L] (stability constant) [2]: 22.6
logKGdL(pH7.4) (conditional stability constant) [2]: 18.4
logKZnL(pH7.4) (conditional stability constant) [3]: 13.9
logKCuL(PH7.4) (conditional stability constant) [4]: 17.3

O=C(O)CN1CCN(CC(=O)O)CCN(CC(=O)NCC2CCC(C(=O)O)CC2)CCN(CC(=O)O)CC1 (stereo not drawn) [Compound 4a, DO3A-tranexamic acid]
LogK [H2L]/[HL][H] (protonation constant) [5]: 8.91
LogK [H3L]/[H2L][H] (protonation constant) [5]: 4.93
LogK [H4L]/[H3L][H] (protonation constant) [5]: 4.87
LogK [HL]/[L][H] (protonation constant) [5]: 11.73
logKsel(Gd/Ca) (selectivity constant) [6]: 10.56
logKsel(Gd/Cu) (selectivity constant) [6]: 7.02
logKsel(Gd/Zn) (selectivity constant) [6]: 7.87
logKGdL(pH7.4) (conditional stability constant) [6]: 18.73
pGd [6]: 17.73
logKCaL(pH7.4) (conditional stability constant) [7]: 8.16
pCa [7]: 7.16
logKZnL(pH7.4) (conditional stability constant) [8]: 10.86
pZn [8]: 9.86
logKCuL(PH7.4) (conditional stability constant) [9]: 11.70
pCu [9]: 10.70

CCOC(=O)C1CCC(CNC(=O)CN2CCN(CC(=O)O)CCN(CC(=O)O)CCN(CC(=O)O)CC2)CC1 (stereo not drawn) [Compound 4b, DO3A-tranexamic Acid Ester Derivative 1]
LogK [H2L]/[HL][H] (protonation constant) [5]: 9.35
LogK [H3L]/[H2L][H] (protonation constant) [5]: 5.24
LogK [HL]/[L][H] (protonation constant) [5]: 10.80
logKsel(Gd/Ca) (selectivity constant) [6]: 6.65
logKsel(Gd/Cu) (selectivity constant) [6]: 4.68
logKsel(Gd/Zn) (selectivity constant) [6]: 5.43
logKGdL(pH7.4) (conditional stability constant) [6]: 16.72
pGd [6]: 15.72
logKCaL(pH7.4) (conditional stability constant) [7]: 10.06
pCa [7]: 9.06
logKZnL(pH7.4) (conditional stability constant) [8]: 11.29
pZn [8]: 10.29
logKCuL(PH7.4) (conditional stability constant) [9]: 12.04
pCu [9]: 11.04

C=CCOC(=O)C1CCC(CNC(=O)CN2CCN(CC(=O)O)CCN(CC(=O)O)CCN(CC(=O)O)CC2)CC1 (stereo not drawn) [Compound 4c, DO3A-tranexamic Acid Ester Derivative 2]
LogK [H2L]/[HL][H] (protonation constant) [5]: 8.64
LogK [H3L]/[H2L][H] (protonation constant) [5]: 5.45
LogK [HL]/[L][H] (protonation constant) [5]: 10.62
logKsel(Gd/Ca) (selectivity constant) [6]: 6.55
logKsel(Gd/Cu) (selectivity constant) [6]: 2.21
logKsel(Gd/Zn) (selectivity constant) [6]: 3.91
logKGdL(pH7.4) (conditional stability constant) [6]: 16.99
pGd [6]: 15.99
logKCaL(pH7.4) (conditional stability constant) [7]: 10.44
pCa [7]: 9.43
logKZnL(pH7.4) (conditional stability constant) [8]: 13.08
pZn [8]: 12.08
logKCuL(PH7.4) (conditional stability constant) [9]: 14.77
pCu [9]: 13.77

O.O=C([O-])CN1CCN(CC(=O)[O-])CCN(CC(=O)NCC2CCC(C(=O)O)CC2)CCN(CC(=O)[O-])CC1.[Gd+3] (stereo not drawn) [Compound 5a]
R1 relaxivity [10]: 3.9 ± 0.04 mM⁻¹ s⁻¹
R2 relaxivity [10]: 4.0 ± 0.04 mM⁻¹ s⁻¹
T1 relaxation time [10]: 256.43 ± 2.63^a msec
T2 relaxation time [10]: 250.02 ± 2.50 ms

O=C(O)CN1CCN(CC(=O)O)CCN(CC(=O)O)CCN(CC(=O)O)CC1 [DOTA]
LogK [H2L]/[HL][H] (protonation constant) [1]: 9.68
LogK [H3L]/[H2L][H] (protonation constant) [1]: 4.55
LogK [H4L]/[H3L][H] (protonation constant) [1]: 4.13
LogK [HL]/[L][H] (protonation constant) [1]: 12.09
ΣpKa (overall basicity) [1]: 30.45
LogK [GdL]/[Gd][L] (stability constant) [2]: 25.30
logKsel(Gd/Ca) (selectivity constant) [2]: 8.07
logKsel(Gd/Cu) (selectivity constant) [2]: 2.67
logKsel(Gd/Zn) (selectivity constant) [2]: 4.25
logKGdL(pH7.4) (conditional stability constant) [2]: 18.33
pGd [2]: 19.2
LogK [CaL]/[Ca][L] (stability constant) [11]: 17.23
logKCaL(pH7.4) (conditional stability constant) [11]: 10.26
LogK [ZnL]/[Zn][L] (stability constant) [3]: 21.05
logKZnL(pH7.4) (conditional stability constant) [3]: 14.08
pZn [3]: 15.19
LogK [CuL]/[Cu][L] (stability constant) [4]: 22.63
logKCuL(PH7.4) (conditional stability constant) [4]: 15.66
pCu [4]: 14.05

O=C(O)CN(CCN(CC(=O)O)CC(=O)O)CCN(CC(=O)O)CC(=O)O [DTPA]
LogK [H2L]/[HL][H] (protonation constant) [1]: 8.60
LogK [H3L]/[H2L][H] (protonation constant) [1]: 4.28
LogK [H4L]/[H3L][H] (protonation constant) [1]: 2.64
LogK [HL]/[L][H] (protonation constant) [1]: 10.49
ΣpKa (overall basicity) [1]: 26.01
LogK [GdL]/[Gd][L] (stability constant) [2]: 22.46
logKsel(Gd/Ca) (selectivity constant) [2]: 11.71
logKsel(Gd/Cu) (selectivity constant) [2]: 1.08
logKsel(Gd/Zn) (selectivity constant) [2]: 3.76
logKGdL(pH7.4) (conditional stability constant) [2]: 18.14
pGd [2]: 17.14
LogK [CaL]/[Ca][L] (stability constant) [11]: 10.75
logKCaL(pH7.4) (conditional stability constant) [11]: 6.43
pCa ([11]; pM = −log[M]free at pH7.4, [M]total = 1 μmol/dm^3, [L]total = 1.1 μmol/dm^3): 5.45
LogK [ZnL]/[Zn][L] (stability constant) [3]: 18.70
logKZnL(pH7.4) (conditional stability constant) [3]: 14.38
pZn [3]: 13.39
LogK [CuL]/[Cu][L] (stability constant) [4]: 21.38
logKCuL(PH7.4) (conditional stability constant) [4]: 17.06
pCu [4]: 16.06

CNC[C@H](O)[C@@H](O)[C@H](O)[C@H](O)CO.O=C([O-])CN1CCN(CC(=O)[O-])CCN(CC(=O)O)CCN(CC(=O)[O-])CC1.[Gd+3] [Dotarem]
R1 relaxivity [10]: 3.7 ± 0.04 mM⁻¹ s⁻¹
R2 relaxivity [10]: 4.1 ± 0.21 mM⁻¹ s⁻¹
T1 relaxation time [10]: 270.30 ± 2.92 ms
T2 relaxation time [10]: 244.54 ± 12.5 ms

CCOc1ccc(C[C@@H](CN(CCN(CC(=O)O)CC(=O)O)CC(=O)O)N(CC(=O)O)CC(=O)O)cc1 [EOB-DTPA]
LogK [H2L]/[HL][H] (protonation constant) [1]: 8.63
LogK [H3L]/[H2L][H] (protonation constant) [1]: 4.26
LogK [H4L]/[H3L][H] (protonation constant) [1]: 2.73
LogK [HL]/[L][H] (protonation constant) [1]: 10.91
ΣpKa (overall basicity) [1]: 26.53
LogK [GdL]/[Gd][L] (stability constant) [2]: 23.46
logKGdL(pH7.4) (conditional stability constant) [2]: 18.7

CNC[C@H](O)[C@@H](O)[C@H](O)[C@H](O)CO.CNC[C@H](O)[C@@H](O)[C@H](O)[C@H](O)CO.O=C([O-])CN(CCN(CC(=O)[O-])CC(=O)O)CCN(CC(=O)O)C(COCc1ccccc1)C(=O)[O-].[Gd+3] (stereo not drawn) [Multihance]
pattern of evolution of the paramagnetic relaxation rate R1P(t)/R1P(0) (in words) [12]: drastic decrease in the rate
R1 relaxivity [13]: 4.0 ± 0.2 mM⁻¹ s⁻¹
R2 relaxivity [13]: 4.3 ± 0.5 mM⁻¹ s⁻¹
T1 relaxation time [13]: 250.62 ± 12.5 ms
T2 relaxation time [13]: 235 ± 27.4 ms
